Results on twelve molecules are retold here after ChEMBL document CHEMBL1201862, “PubChem BioAssay data set” (2004).

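The compound was tested at five concentrations on cells cultured in 96-well plates, with a 48-hour exposure period. Here, GI50 denotes the concentration required for 50% inhibition of growth.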 The source made the active and inactive calls. No stated cut-off is given here; in the data, active = GI50 up to about 1.1 µM and inactive = higher.

Test systems include SK-MEL-5; ACHN; DMS-114; IGROV-1; HT-29; U-251; EKVX; NCI-H23; HCT-15; SNB-19; DMS-273; RPMI-8226; OVCAR-5; HCC 2998; Hs-578T; A498; MDA-MB-231; T47D; NCI/ADR-RES.
Experiment in all cases: DTP human tumour cell line panel, 48 h

In the case of `O=C(NC(=O)c1cn(CCN(CCO)C(=O)NCCCCCCNC(=O)N(CCO)CCn2cc(C(=O)NC(=O)OCc3ccccc3)c(=O)[nH]c2=O)c(=O)[nH]c1=O)OCc1ccccc1`, the GI50 in the assay with SK-MEL-5, in the assay with ACHN, with DMS-114, with IGROV-1, in the assay with HT-29 and in the assay on U-251 was > 100 µM (inactive) throughout. Further, the GI50 (commonly the concentration giving 50% growth inhibition) was > 100 µM (inactive) with EKVX; > 100 µM (inactive) in the assay with NCI-H23; more than 100 µM with HCT-15; > 100 µM (inactive) with SNB-19; > 100 µM (inactive) in the assay with DMS-273; > 100 µM (inactive) with RPMI-8226. Also, the GI50 in the assay with OVCAR-5 is > 100 µM (inactive).
Regarding `COc1cc(/C=C(\C#N)C(=O)c2ccccc2)ccc1OCc1ccccc1`, the GI50 in the assay with HCC 2998, in the assay on SK-MEL-5, in the assay on ACHN, in the assay on DMS-114, in the assay on IGROV-1 and in the assay with EKVX was > 100 µM (inactive) each time. Moreover, the GI50 with NCI-H23 was > 100 µM (inactive); with HCT-15 it was more than 100 µM; in the assay on SNB-19 it was > 100 µM (inactive); with RPMI-8226, > 100 µM (inactive); with OVCAR-5, > 100 µM (inactive).
Regarding `O=C(/C=C1\N=C(c2ccccc2)N(c2ccc3c(c2)Sc2cc(N4C(=O)/C(=C/C(=O)/C=C/c5ccccc5)N=C4c4ccccc4)ccc2N3)C1=O)/C=C/c1ccccc1`, the GI50 is 33.2 µM (inactive) in the assay on Hs-578T; > 100 µM (inactive) in the assay with HCC 2998; 27.9 µM (inactive) in the assay with A498; 18.7 µM (inactive) in the assay on SK-MEL-5; > 100 µM (inactive) with ACHN; 38 µM (inactive) in the assay with MDA-MB-231. The GI50 is 63.7 µM (inactive) in the assay with T47D; 37.2 µM (inactive) in the assay with IGROV-1; > 100 µM (inactive) in the assay on HT-29; 24.2 µM (inactive) in the assay with U-251; 85.7 µM (inactive) in the assay on EKVX; 50.4 µM (inactive) with NCI-H23. Also, the GI50 in the assay on HCT-15 is more than 100 µM; with SNB-19, 29.7 µM (inactive); in the assay on RPMI-8226, 31.6 µM (inactive); with NCI/ADR-RES it was 41.6 µM (inactive); with OVCAR-5 it was 22.4 µM (inactive).
Regarding `Cc1ccc(CC(=O)Nc2ccc(NC(=O)/C=C/NC(=O)/C=C/c3ccc(-c4ccccc4)cc3)cc2C(=O)c2ccccc2)cc1`, the GI50 in the assay on Hs-578T was 1.73 µM (inactive); in the assay on HCC 2998 it was 0.0237 µM (active); with A498 it was 2.31 µM (inactive); in the assay with SK-MEL-5, 2.09 µM (inactive); with ACHN, 3.08 µM (inactive); in the assay on MDA-MB-231, 1.87 µM (inactive). In addition, the GI50 in the assay with T47D was 2.84 µM (inactive); in the assay with IGROV-1 it was 0.975 µM (active); with HT-29, 5.06 µM (inactive); with U-251 it was 1.85 µM (inactive); in the assay on EKVX, 1.32 µM (inactive); in the assay on NCI-H23 it was 1.85 µM (inactive). Further, the GI50 was 2.7 µM with HCT-15; 3.05 µM (inactive) with SNB-19; 2.4 µM (inactive) in the assay with RPMI-8226; 5.41 µM (inactive) in the assay with NCI/ADR-RES; 2.09 µM (inactive) with OVCAR-5.
With `CC(=O)C1C(c2ccc(N(C)C)cc2)c2cc3c(cc2OC1(C)O)OCO3` (centres undefined), the GI50 in the assay with SK-MEL-5 is 30.8 µM (inactive); in the assay with ACHN, 41.2 µM (inactive); in the assay on DMS-114, 33.3 µM (inactive); with IGROV-1, 77.8 µM (inactive); with HT-29, 23.2 µM (inactive); with U-251 it was 52.7 µM (inactive). The GI50 is 77.6 µM (inactive) in the assay on EKVX; 59 µM (inactive) in the assay with NCI-H23; 41.3 µM in the assay with HCT-15; 75.7 µM (inactive) in the assay with SNB-19; 29.4 µM (inactive) with DMS-273; 26.7 µM (inactive) with RPMI-8226.
Consider `CCCCCCc1cc2cc(-c3cn4ccccc4n3)c(=O)oc2cc1O`, for which the GI50 in the assay on Hs-578T was 4.14 µM (inactive); in the assay on HCC 2998 it was 18.4 µM (inactive); with A498, 20.1 µM (inactive); in the assay on SK-MEL-5, 8.95 µM (inactive); in the assay with ACHN it was 18 µM (inactive); in the assay with MDA-MB-231, 3.27 µM (inactive). For the same molecule, the GI50 in the assay on T47D was 19.2 µM (inactive); in the assay on IGROV-1 it was 11.2 µM (inactive); in the assay on HT-29, > 55.8 µM (inactive); in the assay with U-251, 3.56 µM (inactive); in the assay with EKVX, 18.4 µM (inactive); with NCI-H23, 5.66 µM (inactive). For the same molecule, the GI50 was 5.66 µM in the assay with HCT-15; 13.2 µM (inactive) in the assay on SNB-19; 3.68 µM (inactive) in the assay with RPMI-8226; 5.26 µM (inactive) in the assay on NCI/ADR-RES; 21.8 µM (inactive) in the assay on OVCAR-5.
For `COc1ccc(NC/C=C/C(=C/COC(C)=O)OC(C)=O)cc1`, the GI50 with Hs-578T is 2.12 µM (inactive); in the assay with HCC 2998 it was 3.03 µM (inactive); in the assay with A498, 1.39 µM (inactive); in the assay with SK-MEL-5, 15.3 µM (inactive); in the assay on ACHN, 1.73 µM (inactive); with MDA-MB-231 it was 1.78 µM (inactive). Moreover, the GI50 with T47D was 2.41 µM (inactive); in the assay with IGROV-1 it was 1.8 µM (inactive); with HT-29, 2.19 µM (inactive); in the assay with U-251, 2.44 µM (inactive); with EKVX it was 2.03 µM (inactive); in the assay with NCI-H23, 2.06 µM (inactive). Besides, the GI50 is 2.41 µM in the assay with HCT-15; 3.27 µM (inactive) in the assay with SNB-19; 0.252 µM (active) with RPMI-8226; 2.59 µM (inactive) in the assay with NCI/ADR-RES; 1.75 µM (inactive) with OVCAR-5.
Turning to `CC(=O)OCC1OC(O[C@@H]2c3c(O)c4c(c(O)c3C3=C(NN(c5ccc([N+](=O)[O-])cc5[N+](=O)[O-])[Se]3=O)[C@@]2(C)O)C(=O)c2ccccc2C4=O)C(OC(C)=O)C(OC(C)=O)C1OC(C)=O` (some centres undefined), the GI50 with Hs-578T was 0.303 µM (active); with HCC 2998, 0.228 µM (active); with A498 it was 0.288 µM (active); in the assay on SK-MEL-5 it was 0.2 µM (active); with ACHN it was 0.222 µM (active); in the assay on MDA-MB-231, 0.346 µM (active). Besides, the GI50 in the assay with T47D is 0.286 µM (active); in the assay on IGROV-1, 0.303 µM (active); in the assay on HT-29, 0.239 µM (active); in the assay with U-251 it was 0.14 µM (active); in the assay with EKVX, 0.23 µM (active); with NCI-H23 it was 0.251 µM (active). The GI50 was 0.211 µM in the assay with HCT-15; 0.323 µM (active) in the assay on SNB-19; 0.16 µM (active) with RPMI-8226; 0.336 µM (active) with NCI/ADR-RES; 0.51 µM (active) in the assay with OVCAR-5.
In the case of `NC(=O)NN=C1Cc2ccccc2C1`, the GI50 in the assay on Hs-578T, in the assay on HCC 2998, with A498, in the assay on SK-MEL-5, in the assay with ACHN and in the assay on MDA-MB-231 was > 100 µM (inactive) each time. For the same molecule, the GI50 in the assay with T47D, in the assay on IGROV-1, in the assay with HT-29, in the assay on U-251, in the assay on EKVX and in the assay on NCI-H23 was > 100 µM (inactive) in each case. Moreover, the GI50 with HCT-15 is more than 100 µM; in the assay with SNB-19 it was > 100 µM (inactive); with RPMI-8226, > 100 µM (inactive); with NCI/ADR-RES, > 100 µM (inactive); in the assay with OVCAR-5, > 100 µM (inactive).
Take `CCN(CC)CCC(=O)c1ccc(Cl)c(Cl)c1`: the GI50 in the assay with Hs-578T is 17.1 µM (inactive); with HCC 2998, 43.6 µM (inactive); in the assay on A498, 18.5 µM (inactive); in the assay on SK-MEL-5, 20.1 µM (inactive); in the assay with ACHN, 76.9 µM (inactive); in the assay on MDA-MB-231, > 10 µM (inactive). Besides, the GI50 in the assay with T47D is 18.6 µM (inactive); in the assay with IGROV-1, 39.5 µM (inactive); in the assay on HT-29, 32.3 µM (inactive); in the assay on U-251, 36.6 µM (inactive); in the assay with EKVX, > 100 µM (inactive); with NCI-H23, > 10 µM (inactive). The GI50 was 34.6 µM in the assay with HCT-15; > 100 µM (inactive) in the assay with SNB-19; 3.61 µM (inactive) with RPMI-8226; 34.1 µM (inactive) in the assay with NCI/ADR-RES; > 100 µM (inactive) in the assay on OVCAR-5.
For the molecule `Cc1ccc2c3ccc4c(c3n(C)c2c1)C(=O)C=CC4=O`, the GI50 in the assay with Hs-578T is > 10 µM (inactive); in the assay on HCC 2998, > 10 µM (inactive); in the assay on A498, > 10 µM (inactive); in the assay on SK-MEL-5 it was > 10 µM (inactive); in the assay with ACHN, 3.51 µM (inactive); in the assay with MDA-MB-231, 3.97 µM (inactive). For the same molecule, the GI50 with T47D was 2.43 µM (inactive); in the assay on IGROV-1, > 10 µM (inactive); in the assay on HT-29, > 10 µM (inactive); with U-251 it was > 10 µM (inactive); with EKVX, > 10 µM (inactive); with NCI-H23 it was > 9.23 µM (inactive). In addition, the GI50 was 4.6 µM in the assay on HCT-15; > 10 µM (inactive) with SNB-19; 2.39 µM (inactive) in the assay on RPMI-8226; > 5.89 µM (inactive) in the assay with NCI/ADR-RES; > 10 µM (inactive) in the assay on OVCAR-5.
As to `C=CC1(CBr)CCC(C(C)(C)Br)O1` (centres undefined), the GI50 is 12.6 µM (inactive) in the assay with Hs-578T; 16.6 µM (inactive) in the assay with HCC 2998; 19.1 µM (inactive) with A498; 9.86 µM (inactive) in the assay with SK-MEL-5; 16.4 µM (inactive) in the assay with ACHN; 13.2 µM (inactive) with MDA-MB-231. In addition, the GI50 with T47D is 2.28 µM (inactive); in the assay with IGROV-1, 8.13 µM (inactive); with HT-29, 5.77 µM (inactive); in the assay on U-251 it was 6.27 µM (inactive); with EKVX, 18 µM (inactive); in the assay on NCI-H23 it was 6.98 µM (inactive). Besides, the GI50 is 6.64 µM in the assay with HCT-15; 15.8 µM (inactive) in the assay with SNB-19; 1.79 µM (inactive) with RPMI-8226; 10.1 µM (inactive) in the assay on NCI/ADR-RES; 14.7 µM (inactive) in the assay on OVCAR-5.
